These results are taken from a melting point compilation (Tetko et al.; mined from patent text by program, amines drawn as free bases though some values may be those of a salt).

Molecules are shown by their SMILES.

With `CCOC(=O)Cc1sc(SCc2ccc(C(=O)OC)s2)nc1C`, the melting point – broadly, the temperature, or range, at which the solid turns liquid – lay within 49 to 51 °C.

`O=C(C1Cc2ccccc2N1c1ncccn1)N1CCCC1` (centres undefined) showed a melting point of 220 to 223 °C.

In turn, `CSCc1cn(C)c2cc(F)ccc2c1=O` registered a melting point of 167 to 169 °C.

Molecule `OCc1nccn1C(c1ccccc1)(c1ccccc1)c1ccccc1` registered a melting point of 243 to 244 °C.

As for `Cc1nn(-c2ccccn2)c2[nH]c3ccc(N(C)C)cc3c(=O)c12`, the melting point fell in the range of 171 to 173 °C.

Turning to `Oc1ccc(NCCCCCCBr)cc1`, the melting point fell in the range of 123 to 126 °C.

As for `CCOC(=O)c1sc(=O)[nH]c1C(F)(F)C(F)(F)F`, the melting point lay in the range of 95 to 97 °C.

As for `CCOC(=O)C1=COc2cc(OC(C)=O)ccc2O1`, the melting point was determined as 88 °C.

On to `CC(C)c1nn(-c2ccc(C#N)nn2)cc1CCCO`, for which the melting point fell in the range of 140 to 141 °C.

Molecule `Cc1c(C(=O)c2cnn(C(C)(C)C)c2O)ccc(S(C)(=O)=O)c1C1=NOC2CC12` (centres undefined) yielded a melting point of 69 to 74 °C.

Molecule `COc1ccc(-c2nnc3c4ccccc4c(OCCO)nn23)cc1` returned a melting point of 252 to 254 °C.

`CCOP(=O)(C=Cc1ccc([N+](=O)[O-])cc1)OCC`: the melting point was in the range of 95 to 98 °C.

For the molecule `CC(C)(C)OC(=O)C(C1NC(C(=O)OCc2ccccc2)C2(CCOCC2)S1)N1C(=O)c2ccccc2C1=O` (centres undefined), the melting point was in the range of 168 to 169 °C.

Turning to `O=C(Nc1ccc(O)cc1)Nc1cc(Cl)ccc1C(=O)O`, the melting point is 212 to 214 °C.

For the molecule `C=Cc1c(CC)nc(CC)c(CO)c1-c1ccccc1`, the melting point fell in the range of 84 to 85 °C.

In turn, `C=CCc1ccc(C=CC(=O)c2ccc(OCC=C(C)C)cc2OCC(=O)O)cc1` had a melting point of 125 to 126 °C.

For `CCc1nc2c(C)cc(C)nc2n1Cc1ccc(C(Cc2nnn[nH]2)c2ccccc2Cl)cc1` (centres undefined), the melting point lay within 217 to 221 °C.

Regarding `O=C(NCc1ccccn1)Nc1cc(N2CC(c3ccc(F)cc3)CC2=O)ccn1` (centres undefined), the melting point lay in the range of 153 to 155 °C.

For the molecule `Cc1cc(COc2c(Cl)cc(CSc3ccc4ccccc4c3)cc2Cl)oc(=O)c1`, the melting point came out at 125 °C.

In turn, `COc1ccc(C(=O)c2ccc(-c3nc4ccccc4o3)cc2)c(O)c1` gave a melting point of 177 to 179 °C.

In turn, `Cc1cc(CCC(=O)OCC(CO)(COC(=O)CCc2cc(C)c(O)c(C(C)(C)C)c2)COC(=O)CCc2cc(C)c(O)c(C(C)(C)C)c2)cc(C(C)(C)C)c1O` returned a melting point of 40 to 50 °C.

Turning to `CC(C)c1cccc(C(C)C)c1-c1cc(OCc2ccccc2)ccc1CC(NC(c1ccccc1)c1ccccc1)C(N)=O` (centres undefined), the melting point was in the range of 148 to 150 °C.

Molecule `CCNc1nc(C)c(-c2ccnc(Nc3ccc(N4CCOCC4)c(Cl)c3)n2)s1` displayed a melting point of 273 to 274 °C.

Turning to `O=C1OC(CCc2ccccc2)(c2ccccc2)CC(O)=C1Sc1ccccc1` (centres undefined), the melting point lay within 58 to 60 °C.

Take `Nc1cccc(COc2cccc3cccnc23)c1`: the melting point was 146 to 147 °C.

`CC(=O)OC1CSC(Oc2cccc(-c3ccncc3)n2)C(OC(C)=O)C1OC(C)=O` (centres undefined) displayed a melting point of 137 °C.

As to `CCCCC(C#N)c1cccc(C(=O)c2cc3cc(C(=O)OC)sc3s2)c1` (centres undefined), the melting point was 131 °C.

On to `COc1cc(NC(=O)/C=C/c2ccc(C(C)(C)C)cc2)ccc1O`, for which the melting point was in the range of 203 to 204 °C.

For `CCOc1cc(C(CS(C)(=O)=O)N2C(=O)c3cccc(CNC(C)=O)c3C2=O)ccc1OC` (centres undefined), the melting point was 84 to 86 °C.

Take `CC(O)CC(=O)Nc1c(C(=O)c2ccccc2)[nH]c2cc(Cl)ccc12` (centres undefined): the melting point lay in the range of 159 to 162 °C.

As for `CCC(=O)SCC(Cc1ccccc1)C(=O)Nc1cc(C)cc(C(=O)O)c1` (centres undefined), the melting point was 151 to 153 °C.

The molecule `Cc1ccc(S(=O)(=O)CNc2nc(C)cc(C)n2)cc1` returned a melting point of 191 to 194 °C.

On to `CN(C)C(=O)NCCc1cccc(-c2nc(=O)c3ccccc3s2)n1`, for which the melting point fell in the range of 190 to 191 °C.

`Cc1noc(NS(=O)(=O)c2ccccc2-c2ccc(-c3nccs3)cc2)c1C` yielded a melting point of 87 to 97 °C.

Take `COc1cc2c(cc1OC)-c1c(O)c(OC)cc3c1C(C2)CN(C)C3` (centres undefined): the melting point lay in the range of 196 to 210 °C.

`CC1Cc2cc3c(cc2C(c2ccc([N+](=O)[O-])cc2)=NN1c1nnn[nH]1)OCO3` (centres undefined) had a melting point of 263 to 264 °C.

`Oc1ccc2c(-c3ccccn3)noc2c1Cl` displayed a melting point of 209 to 211 °C.

As to `N#Cc1ccc(N2CCC(C(N)=O)CC2)c2ccccc12`, the melting point lay in the range of 249 to 250 °C.

With `C#CCC(NC(=O)c1ccccc1)C(C)=O` (centres undefined), the melting point fell in the range of 101 to 103 °C.

As to `CCOC(=O)c1sc(N2C[C@@H](Cc3ccccc3)NC2=O)nc1C`, the melting point lay in the range of 102 to 103 °C.

For `CC(C)(C)c1cc(SCc2ccc(C#N)cc2)cc(C(C)(C)C)c1O`, the melting point lay within 143 to 145 °C.

The molecule `O=S1(=O)N=C(n2ccnc2)Nc2ccc(C(F)(F)F)cc21` came in with a melting point of 211 to 214 °C.

Molecule `COc1cccc2c1c(C)c(CCC(=O)O)n2Cc1ccc(Cl)cc1` gave a melting point of 145 °C.

Molecule `CC(=NO)c1cccc(C(F)(F)F)c1` displayed a melting point of 63 to 65 °C.

For the molecule `Cc1cccc2c1nc1n2CC(C(C)(C)C)Oc2c(Cl)cccc2-1` (centres undefined), the melting point was 191 to 192 °C.

For the molecule `Cc1oc(C)c(C(=O)Nc2ccc(Cl)c(C(=O)OC(C)C)c2)c1C`, the melting point was 83 to 85 °C.

Molecule `O=C(CCl)c1ccc2c(c1)CN(C(=O)C(F)(F)F)CC2` yielded a melting point of 120 to 122 °C.

As for `Cc1cc(C(C)(C)C)c(O)c(C)c1CC(=O)O`, the melting point is 161 to 165 °C.

Molecule `Cc1ccc(-c2ccccc2NC(=N)N(C)C)cc1` showed a melting point of 147 to 148 °C.

`O=c1ccc(-c2c(-c3ccccc3)nn3ccccc23)nn1CC1(O)CCNCC1` yielded a melting point greater than 260 °C.

Regarding `CCCCCCCCCCCC(=O)C(C)(C)C(=O)Nc1c(OC)cc(OC)cc1OC`, the melting point is 92 to 94 °C.

`CN(Cc1ccccc1)c1ccccc1C(=O)O` gave a melting point of 86 to 88 °C.

`O=C1NCCC[C@@H]1NS(=O)(=O)c1ccc(F)cc1`: the melting point fell in the range of 153 to 156 °C.

`O=C(O)CCCc1ccc(-c2ccc([N+](=O)[O-])cc2)cc1` returned a melting point of 160 to 161 °C.

Turning to `c1ccc(C(Oc2ccncc2)c2ccccc2)cc1`, the melting point lay in the range of 68 to 70 °C.

For the molecule `COc1cccc([C@H]2O[C@H](CC(=O)Nc3ccc4oc(CCC(=O)O)cc4c3)C(=O)N(CC(C)(C)CO)c3ccc(Cl)cc32)c1OC`, the melting point fell in the range of 207 to 209 °C.

`CN1CCc2cc(O)c(O)c(Sc3cccs3)c2CC1` registered a melting point of 189 to 191 °C.

For `COc1ccc(CC2CCc3ncc(C)cc3C2=O)cc1` (centres undefined), the melting point fell in the range of 92 to 93 °C.

Consider `CC(C)(C)OC(=O)NCCc1ccc(OCCC2Oc3ccccc3N(Cc3cccc(Cl)c3)C2=O)cc1` (centres undefined), for which the melting point lay in the range of 91 to 92 °C.

`CCOC(=O)c1nc(N)sc1-c1nc2ccc(Cl)cn2c1C` displayed a melting point of 217 to 219 °C.

Regarding `COc1ccc2c(c1)C13CCN(C)C(C2)C1(OC(C)=O)CCOC3` (centres undefined), the melting point was 161 to 163 °C.

The molecule `CC1CC(=O)C(C(=O)CCC2CCCO2)C(=O)O1` (centres undefined) yielded a melting point of 43 to 45 °C.

As to `COc1ccc(Cl)cc1N1CCN(CCNc2nccc(C(=O)N3CCC(Nc4nc(=O)cc[nH]4)CC3)n2)CC1`, the melting point lay in the range of 114 to 117 °C.

Molecule `COc1ccc(S(=O)(=O)Nc2c(/C=C/c3ccncc3)cccc2OC)cc1` returned a melting point of 205 to 206 °C.

Molecule `O=C1CC(c2cccc(-n3ccnn3)c2)=Nc2cc(O)c(-c3ccccc3F)cc2N1` returned a melting point greater than 250 °C.

In turn, `CCC(C#N)=C1CCN(c2ccc(N3C[C@H](CNC(C)=O)OC3=O)cc2F)CC1` had a melting point of 185 to 186 °C.

The molecule `CN(C(=O)COc1nc(F)ns1)c1ccccc1` displayed a melting point of 82 °C.

Regarding `CCCN1C(=O)N2CC(Cc3ccccc3)N=C2c2[nH]c(C(OC)c3ccccc3)nc21` (centres undefined), the melting point was 160 to 162 °C.

The molecule `Cc1cccc2[nH]c(C(=O)OC(C)C)c(Sc3ccc(Cl)cc3)c12` had a melting point of 190 to 192 °C.

The molecule `COC(=O)[C@@H]1C[C@H](C(=O)OC(C)(C)C)N(C(=O)CNC(=O)Nc2cccc(C(=O)O)c2)[C@@H]1c1ccccc1` (racemic) came in with a melting point of 243 °C.

With `COC(=O)C1CCC2(C3(C)OCCO3)CC1C(=O)O2` (centres undefined), the melting point is 69 to 71 °C.

For the molecule `CCN(CC)C(=O)C(=O)Nc1cc(C)c(S(=O)(=O)C[N+](=O)[O-])c(C)c1`, the melting point lay in the range of 128 to 129 °C.

On to `CCCC(=O)C1=C(O)CC(c2cc(C(C)C)no2)CC1=O` (centres undefined), for which the melting point was in the range of 105 to 107 °C.

Molecule `CCOC(=O)c1cc(-c2csc(C(=O)OCC)n2)[nH]n1` displayed a melting point of 104 to 106 °C.

The molecule `Cc1cc(Cl)c(-n2nc(C)n(C(F)F)c2=O)cc1OC(C)C(=O)O` (centres undefined) yielded a melting point of 56 to 60 °C.

In the case of `O=C1CCC(c2ccccc2)N1c1ccccc1` (centres undefined), the melting point was in the range of 106 to 108 °C.

Consider `COc1ccccc1N1CCN(CC(O)COc2ccccc2CC(N)=O)CC1` (centres undefined), for which the melting point was 120 to 122 °C.

`ClC1=Nc2ccccc2Oc2cscc21` registered a melting point of 215 to 217 °C.

The molecule `CCCCCCc1ncc(/C=C(\Cc2cccs2)C(=O)O)n1Cc1ccccc1Cl` came in with a melting point of 161 to 163 °C.

`CN1CCC(Sc2ccc3[nH]c(=O)[nH]c(=O)c3c2)CC1` displayed a melting point greater than 260 °C.

Molecule `N#Cc1cnc2sc(Br)cc2c1Cl` yielded a melting point of 158 to 166 °C.

As to `COc1ccc(C(=O)c2c(N)sc3c2CCSC3)cc1`, the melting point was 178 to 179 °C.

`CN(C)c1ccc(/C=C\c2ccc3c(=O)[nH]ncc3c2)cc1` returned a melting point of 312 to 318 °C.

`CSc1nc(NCCC(C)C)c2[nH]nc(C)c2n1` displayed a melting point of 90 to 95 °C.

As to `CN1CCN(Cc2ccc(N)cc2C(F)(F)F)CC1`, the melting point was in the range of 119 to 121 °C.

In turn, `CC(=O)c1cnc(-c2ccccc2)c(-c2ccc(=O)n(C(C)C)n2)c1` had a melting point of 207 to 208 °C.

Regarding `Cc1cccnc1C(=O)c1[nH]c2cc(Cl)ccc2c1NC(=O)CC(C)C`, the melting point lay within 142 to 144 °C.

The molecule `Cc1cc(SC#N)c(C(C)(C)C)cc1NC(=O)OC(C)(C)C` registered a melting point of 100 to 111 °C.

With `CC(C)c1cccc(C(C)C)c1NC(=O)Nc1ccc(Oc2ccc3nc(COc4ccc(CC5SC(=O)NC5=O)cc4)n(C)c3c2)cc1` (centres undefined), the melting point is 222 to 225 °C.
